This is an account of results in ChEMBL document CHEMBL1136167, “Prediction of hERG potassium channel affinity by traditional and hologram qSAR methods” (Bioorg Med Chem Lett, 2003).

In data set [1] the target is T1, Voltage-gated inwardly rectifying potassium channel KCNH2 (Homo sapiens, UniProt Q12809). Put plainly: Inhibition of human Potassium channel HERG expressed in mammalian cells.
Data set [2] has as its target T1, Voltage-gated inwardly rectifying potassium channel KCNH2. Put plainly: Inhibition of K+ channel activity in mammalian cells expressing HERG Kv11.1. The format is cell-based.

T1 sequence (Q12809 whole entry): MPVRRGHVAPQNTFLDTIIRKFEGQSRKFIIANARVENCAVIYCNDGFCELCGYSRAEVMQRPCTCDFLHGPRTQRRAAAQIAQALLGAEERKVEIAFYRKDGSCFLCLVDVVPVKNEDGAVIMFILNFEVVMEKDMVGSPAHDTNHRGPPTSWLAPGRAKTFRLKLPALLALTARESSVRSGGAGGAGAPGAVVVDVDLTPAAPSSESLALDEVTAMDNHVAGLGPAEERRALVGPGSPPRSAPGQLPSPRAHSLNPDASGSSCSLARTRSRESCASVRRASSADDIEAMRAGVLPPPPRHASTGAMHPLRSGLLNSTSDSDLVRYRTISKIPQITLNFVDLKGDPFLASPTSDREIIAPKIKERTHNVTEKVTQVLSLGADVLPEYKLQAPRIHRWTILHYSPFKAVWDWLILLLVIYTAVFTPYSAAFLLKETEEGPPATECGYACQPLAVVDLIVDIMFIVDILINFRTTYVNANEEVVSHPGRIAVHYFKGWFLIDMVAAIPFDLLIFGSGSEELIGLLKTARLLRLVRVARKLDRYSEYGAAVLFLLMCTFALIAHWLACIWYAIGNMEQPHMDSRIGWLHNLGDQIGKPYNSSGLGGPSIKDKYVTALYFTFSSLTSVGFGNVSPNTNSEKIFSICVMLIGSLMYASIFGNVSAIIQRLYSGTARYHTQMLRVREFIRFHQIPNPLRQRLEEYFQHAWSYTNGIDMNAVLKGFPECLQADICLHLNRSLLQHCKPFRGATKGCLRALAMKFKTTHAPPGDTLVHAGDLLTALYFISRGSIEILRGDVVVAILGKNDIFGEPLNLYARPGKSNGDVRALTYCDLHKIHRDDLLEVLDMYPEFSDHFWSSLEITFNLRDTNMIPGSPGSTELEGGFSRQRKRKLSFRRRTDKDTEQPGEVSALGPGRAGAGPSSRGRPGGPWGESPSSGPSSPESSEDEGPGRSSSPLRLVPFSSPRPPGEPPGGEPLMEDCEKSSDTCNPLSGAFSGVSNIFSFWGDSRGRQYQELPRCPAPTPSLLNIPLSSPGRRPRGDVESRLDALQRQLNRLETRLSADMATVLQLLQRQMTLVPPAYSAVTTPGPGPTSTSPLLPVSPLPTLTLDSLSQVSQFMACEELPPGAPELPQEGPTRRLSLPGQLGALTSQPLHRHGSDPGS

In turn, `COc1ccc(C2CCN(CC[C@H]3CCOc4ccccc43)CC2)cc1OC` [TERIKALANT] showed an IC50 in data set [1] of 0.251 µM. As to `CC[C@H]1OC(=O)[C@H](C)[C@@H](O[C@H]2C[C@@](C)(OC)[C@@H](O)[C@H](C)O2)[C@H](C)[C@@H](O[C@@H]2O[C@H](C)C[C@H](N(C)C)[C@H]2O)[C@](C)(OC)C[C@@H](C)C(=O)[C@H](C)[C@@H](O)[C@]1(C)O` [CLARITHROMYCIN], the IC50 in data set [1] is 58.9 µM; in data set [2], 33.1 µM. On to `Cc1c(F)c(N2CCNC(C)C2)cc2c1c(=O)c(C(=O)O)cn2C1CC1` (centres undefined) [GREPAFLOXACIN], for which the pIC50 in data set [1] (human) worked out at […]. With `CCOC(=O)C1=C(C)NC(C)=C(C(=O)OC)C1c1cccc([N+](=O)[O-])c1` (centres undefined) [NITRENDIPINE], the half-inhibitory concentration (IC50) in data set [1] is 10 µM. Same read-out and setting: the same measure for `Oc1ccc(CCN2CCC(Nc3nc4ccccc4n3Cc3ccc(F)cc3)CC2)cc1` [DESMETHEYLASTEMIZOLE]: 0.001 µM. Still for that read-out and setting: the same measure for `COc1ccc(C2CCN(CCC3CCOc4ccccc43)CC2)cc1OC` (centres undefined): 0.2 µM; for `O=C(O[C@H]1C[C@@H]2C[C@@H]3C[C@@H](C1)N2CC3=O)C1CNc2ccccc21` (some centres undefined): 5.89 µM. Same read-out and setting: the same measure for `CN1CCC[C@H]1c1cccnc1` [NICOTINE]: 245 µM; for `CN(c1nccc(=O)[nH]1)C1CCN(c2nc3ccccc3n2Cc2ccc(F)cc2)CC1` [MIZOLASTINE]: 0.437 µM; for `Cc1cc2c(s1)Nc1ccccc1N=C2N1CCN(C)CC1` [OLANZAPINE]: 0.182 µM. On to `COc1ccc(C(=O)N2CCN(c3ccc4c(c3)CCC(=O)N4)CC2)cc1OC` [VESNARINONE], for which, in data set [1], half-maximal inhibition (IC50) required 1.1 µM.

Turning to `COc1c(N2CCNC(C)C2)c(F)cc2c(=O)c(C(=O)O)cn(C3CC3)c12` (centres undefined) [GATIFLOXACIN], half-maximal inhibition in data set [1] (IC50) was put at 129 µM. The same measure, in the same setting: with `C[C@@H]1CN(c2c(F)c(N)c3c(=O)c(C(=O)O)cn(C4CC4)c3c2F)C[C@H](C)N1` [SPARFLOXACIN] the figure was 18.2 µM.

A word on the IC50: it is the concentration that gives 50% inhibition. Read a high IC50 as a need for much substance. As usually defined, the pIC50 is the negative decadic logarithm of the IC50, by convention in mol/L. The low end stands for a large IC50, the high end for a small IC50.
